Experimental data published in patent publication US20140341846A1, “METHODS OF INHIBITING PHOTORECEPTOR APOPTOSIS” (The Regents of The University of Michigan, priority 2009, published 2014).
Entries after “also recorded” stand apart in the source; their conditions may differ.

Columns and labels:
caspase 8 = assay: Caspase 8 activity in detached retinas (Met study); type: in vivo, Brown Norway rats; settings: 50 μg subretinal at time of detachment; 24 hours after detachment
Protocol: (§1) Retinal-RPE separation was created in Brown Norway rats by subretinal injection of 1% hyaluronic acid. Met12, derived from the Fas-binding extracellular domain of the oncoprotein Met, was injected into the subretinal space at the time of separation. […] Extrinsic apoptotic pathway was induced in 661W cells using a Fas-activating antibody in the presence or absence of Met12. Caspase 3, caspase 8, and caspase 9 activities were measured with calorimetric and luminescent assays in retinal extracts and cell lysates. Terminal deoxynucleotidyl transferase dUTP nick-end labeling (TUNEL) was performed in retinal sections 3 days after separation. Histology was performed in retinal sections 2 months after retinal detachment.
(§2) Rodents were anesthetized with a 50:50 mix of ketamine (100 mg/mL) and xylazine (20 mg/mL), and pupils were dilated with topical phenylephrine (2.5%) and tropicamide (1%). A 20-gauge microvitreoretinal blade (Walcott Scientific, Marmora, N.J.) was used to create a sclerotomy 2 mm posterior to the limbus, carefully avoiding lens damage. […]
(§3) Caspase 3, caspase 8 and caspase 9 activities were measured with colorimetric tetrapeptide cleavage assay kits, per the manufacturer's instructions (Bio-Vision, Mountain View, Calif.). […] Absorbance was measured at 405 nm in a microplate reader (Spectra-MAX 190, Molecular Devices, Sunnyvale, Calif.). […]

caspase 3 = assay: Caspase 3 activity in detached retinas (Met study); type: in vivo, Brown Norway rats; settings: 50 μg subretinal
Protocol: as §1, §2, §3

caspase 9 = assay: Caspase 9 activity in detached retinas (Met study); type: in vivo, Brown Norway rats; settings: 50 μg subretinal
Protocol: as §1, §2, §3

[1] = tested on: photoreceptors (outer nuclear layer); assay: TUNEL staining 3 days after retinal detachment (Met study); type: in vivo, Brown Norway rats; settings: 50 μg subretinal
Protocol: as §1
(§4) Rodents were anesthetized with a 50:50 mix of ketamine (100 mg/mL) and xylazine (20 mg/mL), and pupils were dilated with topical phenylephrine (2.5%) and tropicamide (1%). […]
(§5) Photoreceptor cell apoptosis was quantified as the percentage of total cells in the outer nuclear layer (ONL) that were TUNEL positive. […] The total number of cells in the ONL was measured in a similar fashion. The total thickness of the retina (measured from the outer edge of the ONL to the inner limiting membrane) was measured in three places in each of three non-overlapping high power fields (40×) at the maximal height of the retinal detachment per section and averaged for each eye. […]

Jurkat cells = Jurkat cells (Zou et al. Nat Med. 2007); cited from earlier work
[2] = tested on: photoreceptors (outer nuclear layer); assay: ONL cell counts and thickness 2 months after retinal detachment (Met study); type: in vivo, Brown Norway rats; settings: 50 μg subretinal at time of detachment; after 2 months of retinal detachment
Protocol: as §1, §4, §5

[3] = tested on: Fas-mediated caspase 8 activation in 661W cells; assay: Fas-Ab induced caspase 8 activity in 661W cells; type: cell-based; settings: 500 ng/ml Fas-Ab, 48 hours after treatment
Protocol: The 661W cell line was maintained in Dulbecco's modified Eagle's medium containing 10% fetal bovine serum, 300 mg/L glutamine, 32 mg/L putrescine, 40 μL/L of β-mercaptoethanol, and 40 μg/L of both hydrocortisone 21-hemisuccinate and progesterone. The media also contained penicillin (90 units/ml) and streptomycin (0.09 mg/ml). Cells were grown at 37° C. in a humidified atmosphere of 5% CO2 and 95% air.
In cell culture experiments, caspase 8 activity was measured by a commercially available luminescent tetrapeptide (LETD) cleavage assay kit (Promega, Madison, Wis.). The 661W cells were seeded in 96-well plates (Nunc, Rochester, N.Y.) at 1500 cells/well for 24 hours prior to treatment. Cells were pre-treated with various concentrations of Met12, mMet, or vehicle for 1 hour prior to treatment with 500 ng/ml of Fas-agonistic Jo2 monoclonal antibody (BD Biosciences, San Jose, Calif.). Caspase 8 activity was measured at various time points by incubating the cells with the pro-luminescent substrate in 96-well plates following manufacturer's instructions. Controls included untreated cells and wells with no cells. Luminescence was measured in a plate reader luminometer (Turner Biosystems, Sunnyvale Calif.).

Row | reduction of caspase 8 activity in detached retinas (caspase 8) | reduction of caspase 3 activity in detached retinas (caspase 3; after 24 hours) | reduction of caspase 9 activity in detached retinas (caspase 9; after 24 hours) | fewer TUNEL-positive photoreceptors as compared with mMet-injected separated retinas [1] | Sequence | protection from FasL induced apoptosis (Jurkat cells) | increase in ONL cell counts compared with mMet-injected retinas [2] | increase in ONL thickness measurements compared with mMet-injected retinas [2] | effect on Fas-Ab induced caspase 8 activation [3] | caspase 8 activity in detached retinas compared to attached retinas (caspase 8) | effect on caspase 3 activity level in detached retinas (caspase 3; 24 hours after detachment) | effect on caspase 9 activity level in detached retinas (caspase 9; 24 hours after detachment)
1 | approximately 50% | approximately 50% | approximately 50% | ~77% | HHIYLGAVNYIY [Met12] | protects | 37% | 27% | inhibited by Met12 treatment in a dose dependent manner; also recorded: full inhibition | – | – | –
2 | – | – | – | – | HHGSDHERNYIY [mMet, reference compound] | – | – | – | no effect | significantly increased | did not affect | did not affect
